Reference: US20250312499A1, “KISSPEPTIN RECEPTOR (KISS1R) TARGETED THERAPEUTICS AND USES THEREOF” (priority 2024, published 2025)
Numbered stars: 1 amine (or outer) side, 2 acyl side, 3 side chain; on linkers, the order of the positions; unused ones are H or OH. Square brackets hold non-standard residues; d marks the D form. Side chains are listed from the residue outwards. Peptide text beside a SMILES is read from it. * marks the point of attachment. DOTA = O=C(O)CN1CCN(CC(=O)O)CCN(CC(=O)*)CCN(CC(=O)O)CC1; Gly(N-(3-F-4-Me-benzyl)) = Cc1ccc(CNCC(=O)*)cc1F; Api(1-amidino) = N=C(N)N1CCC(N)(C(=O)O)CC1; Hydrocinnamoyl(4-I) = O=C(CCc1ccc(I)cc1)*; Phe(4-CN) = N#Cc1ccc(C[C@H](N)C(=O)O)cc1; HO(CH2CH2O)2CH2CH2CO = O=C(CCOCCOCCO)*; Phe(3-F) = N[C@@H](Cc1cccc(F)c1)C(=O)O; γGlu = O=C(O)[C@H](CCC(=O)[*:2])N[*:1]; 2Nal = N[C@@H](Cc1ccc2ccccc2c1)C(=O)O; d2Nal = N[C@H](Cc1ccc2ccccc2c1)C(=O)O; Palmitoyl = CCCCCCCCCCCCCCCC(=O)*; X1 = O=C(CN1CCC(N[*:1])CC1)[*:2]; dCya = N[C@H](CS(=O)(=O)O)C(=O)O; 4Pal = N[C@@H](Cc1ccncc1)C(=O)O; d4Pal = N[C@H](Cc1ccncc1)C(=O)O; PEG4 = NCCOCCOCCOCCOCCC(=O)O; 4Amb = NCc1ccc(C(=O)O)cc1; Api = NC1(C(=O)O)CCNCC1; PEG2 = NCCOCCOCCC(=O)O; Ahx = NCCCCCC(=O)O; azaGly = NNC(=O)O; βAla = NCCC(=O)O; Sar = CNCC(=O)O

The compounds below were run against human kisspeptin receptor (Homo sapiens (Human), UniProt Q969F8) (assay: Human KISS1R binding assay (membrane competition binding)). Details: 90 min at room temperature; competition with 0.2 nM [125I]-metastin (45-54); Flp-In T-Rex 293 kisspeptin membranes; metal complexes nonradioactive Ga, In, Lu; read-out: hKiSSR Binding Ki (90 min).
human kisspeptin receptor, sequence (Q969F8 whole entry): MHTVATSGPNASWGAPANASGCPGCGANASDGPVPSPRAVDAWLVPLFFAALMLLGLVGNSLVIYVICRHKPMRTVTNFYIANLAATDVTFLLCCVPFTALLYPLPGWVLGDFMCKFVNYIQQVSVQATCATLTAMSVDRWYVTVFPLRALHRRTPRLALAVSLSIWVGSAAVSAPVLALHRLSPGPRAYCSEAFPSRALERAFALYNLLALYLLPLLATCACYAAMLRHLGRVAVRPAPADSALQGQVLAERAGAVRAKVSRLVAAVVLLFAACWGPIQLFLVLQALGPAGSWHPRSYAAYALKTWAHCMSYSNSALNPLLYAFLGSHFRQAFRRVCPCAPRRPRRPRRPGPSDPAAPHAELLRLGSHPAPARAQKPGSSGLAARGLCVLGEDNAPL
Outline: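 Radioligand competition: 0.2 nM [125I]-metastin (45-54) displaced by test ligand (usually 0–10,000 nM) over 90 min at room temperature, pH 7.4 buffer with 0.1% BSA. Receptor source is crude membrane (5–10 μg) from tetracycline-induced Flp-In T-Rex 293 cells. Bound label filtered and counted; Ki from non-linear regression.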
`CCCCCCCCCCCCCCCC(=O)N[C@@H](CCC(=O)N[C@@H](CCCCNC(=O)CCOCCOCCOCCOCCNC(=O)CN1CCN(CC(=O)O)CCN(CC(=O)O)CCN(CC(=O)O)CC1)C(=O)N[C@H](Cc1ccc(O)cc1)C(=O)N[C@H](Cc1c[nH]c2ccccc12)C(=O)N[C@@H](CC(N)=O)C(=O)N[C@H](C(=O)N[C@@H](Cc1ccccc1)C(=O)NNC(=O)N[C@@H](CC(C)C)C(=O)NC1(C(=O)N[C@@H](Cc2c[nH]c3ccccc23)C(N)=O)CCN(C(=O)CNCc2ccc(C)c(F)c2)CC1)[C@@H](C)O)C(=O)O` [Compound 119] ({Palmitoyl-γGlu}-K([PEG4-DOTA])[dY][dW]NTF[azaGly]L[Api](Gly(N-(3-F-4-Me-benzyl)))W-NH2) showed a Ki of less than 10 nM. `CC(C)C[C@H](NC(=O)NNC(=O)[C@H](Cc1ccccc1)NC(=O)CCCCCNC(=O)CN1CCN(CC(=O)O)CCN(CC(=O)O)CCN(CC(=O)O)CC1)C(=O)NC1(C(=O)N[C@@H](Cc2c[nH]c3ccccc23)C(N)=O)CCN(C(=N)N)CC1` [Compound 5] ({DOTA-Ahx}-F[azaGly]L[Api(1-amidino)]W-NH2) showed a Ki of 10 to 100 nM. For `Cc1ccc(CNCC(=O)N2CCC(NC(=O)[C@H](CC(C)C)NC(=O)NNC(=O)[C@H](Cc3ccccc3)NC(=O)[C@@H](NC(=O)[C@H](CC(N)=O)NC(=O)CN3CCC(NC(=O)CN4CCN(CC(=O)O)CCN(CC(=O)O)CCN(CC(=O)O)CC4)CC3)[C@@H](C)O)(C(=O)N[C@@H](Cc3c[nH]c4ccccc34)C(N)=O)CC2)cc1F` [Compound 158] ({DOTA}-[X1]NTF[azaGly]L[Api](Gly(N-(3-F-4-Me-benzyl)))W-NH2), the Ki was less than 10 nM. `Cc1ccc(CNCC(=O)N2CCC(NC(=O)[C@H](CC(C)C)NC(=O)NNC(=O)[C@H](Cc3ccccc3)NC(=O)[C@@H](C)NC(=O)[C@@H](C)NC(=O)[C@@H](C)NC(=O)[C@@H](C)NC(=O)[C@@H](C)NC(=O)CCCCCNC(=O)CN3CCN(CC(=O)O)CCN(CC(=O)O)CCN(CC(=O)O)CC3)(C(=O)N[C@@H](Cc3c[nH]c4ccccc34)C(N)=O)CC2)cc1F` [Compound 13] ({DOTA-Ahx}-[dA][dA][dA][dA][dA]F[azaGly]L[Api](Gly(N-(3-F-4-Me-benzyl)))W-NH2) was tested, and the Ki was 10 to 100 nM. With `Cc1ccc(CNCC(=O)N2CCC(NC(=O)[C@H](CC(C)C)NC(=O)NNC(=O)[C@H](Cc3ccccc3)NC(=O)[C@@H](NC(=O)[C@H](CC(N)=O)NC(=O)[C@H](CCCCNC(=O)CN3CCN(CC(=O)O)CCN(CC(=O)O)CCN(CC(=O)O)CC3)NC(=O)[C@@H](Cc3ccc(O)cc3)NC(=O)CCOCCOCCO)[C@@H](C)O)(C(=O)N[C@@H](Cc3c[nH]c4ccccc34)C(N)=O)CC2)cc1F` [Compound 379] ({HO(CH2CH2O)2CH2CH2CO}-[dY]K(DOTA)NTF[azaGly]L[Api](Gly(N-(3-F-4-Me-benzyl)))W-NH2) the Ki was less than 10 nM. With `Cc1ccc(CNCC(=O)N2CCC(NC(=O)[C@H](CC(C)C)NC(=O)NNC(=O)[C@H](Cc3ccccc3)NC(=O)CCCCCNC(=O)[C@@H](CS(=O)(=O)O)NC(=O)CN3CCN(CC(=O)O)CCN(CC(=O)O)CCN(CC(=O)O)CC3)(C(=O)N[C@@H](Cc3c[nH]c4ccccc34)C(N)=O)CC2)cc1F` [Compound 116] ({DOTA}-[dCya][Ahx]F[azaGly]L[Api](Gly(N-(3-F-4-Me-benzyl)))W-NH2) the Ki was less than 10 nM. Work on `Cc1ccc(CNCC(=O)N2CCC(NC(=O)[C@@H](CC(C)C)NC(=O)NNC(=O)[C@H](Cc3ccccc3)NC(=O)c3ccc(CNC(=O)CN4CCN(CC(=O)O)CCN(CC(=O)O)CCN(CC(=O)O)CC4)cc3)(C(=O)N[C@@H](Cc3c[nH]c4ccccc34)C(N)=O)CC2)cc1F` [Compound 260] ({DOTA-4Amb}-F[azaGly][dL][Api](Gly(N-(3-F-4-Me-benzyl)))W-NH2) yielded a Ki of 10 to 100 nM. For `CC(C)C[C@H](NC(=O)NNC(=O)[C@H](Cc1ccccc1)NC(=O)[C@@H](NC(=O)[C@H](CC(N)=O)NC(=O)[C@H](CCCCNC(=O)CN1CCN(CC(=O)O)CCN(CC(=O)O)CCN(CC(=O)O)CC1)NC(=O)[C@@H](Cc1ccc(O)cc1)NC(=O)CCOCCOCCNC(=O)CCc1ccc(I)cc1)[C@@H](C)O)C(=O)NC1(C(=O)N[C@@H](Cc2ccc(O)cc2)C(N)=O)CCN(C(=N)N)CC1` [Compound 324] ({Hydrocinnamoyl(4-I)-PEG2}-[dY]K(DOTA)NTF[azaGly]L[Api(1-amidino)]Y-NH2), the Ki was less than 10 nM. For `Cc1ccc(CNCC(=O)N2CCC(NC(=O)[C@H](CC(C)C)n3cc([C@H](Cc4ccccc4)NC(=O)[C@@H](N)CCCCNC(=O)CN4CCN(CC(=O)O)CCN(CC(=O)O)CCN(CC(=O)O)CC4)nn3)(C(=O)N[C@@H](Cc3c[nH]c4ccccc34)C(N)=O)CC2)cc1F` [Compound 204], the Ki was greater than 100 nM. `Cc1ccc(CNCC(=O)N2CCC(NC(=O)[C@H](CC(C)C)NC(=O)NNC(=O)[C@H](Cc3ccccc3)NC(=O)[C@@H](NC(=O)[C@H](CC(N)=O)NC(=O)[C@H](CCC(=O)O)NC(=O)c3ccc(CNC(=O)CN4CCN(CC(=O)O)CCN(CC(=O)O)CCN(CC(=O)O)CC4)cc3)[C@@H](C)O)(C(=O)N[C@@H](Cc3ccc(C#N)cc3)C(N)=O)CC2)cc1F` [Compound 241] ({DOTA-4Amb}-ENTF[azaGly]L[Api](Gly(N-(3-F-4-Me-benzyl)))[Phe(4-CN)]-NH2) was tested, and the Ki was less than 10 nM. With `CSCC[C@H](NC(=O)c1ccc(CNC(=O)CN2CCN(CC(=O)O)CCN(CC(=O)O)CCN(CC(=O)O)CC2)cc1)C(=O)N[C@@H](Cc1ccccc1)C(=O)N[C@@H](CCCCNC(=O)CCCCC(=O)N[C@@H](Cc1ccccc1)C(=O)NNC(=O)N[C@@H](CC(C)C)C(=O)NC1(C(=O)N[C@@H](Cc2c[nH]c3ccccc23)C(N)=O)CCN(C(=O)CNCc2ccc(C)c(F)c2)CC1)C(=O)O` [Compound 203] the Ki was less than 10 nM. In the case of `Cc1ccc(CNCC(=O)N2CCC(NC(=O)[C@H](CC(C)C)NC(=O)NNC(=O)[C@H](Cc3ccccc3)NC(=O)[C@@H](CC(N)=O)NC(=O)[C@@H](CC(N)=O)NC(=O)[C@@H](CC(N)=O)NC(=O)[C@@H](CC(N)=O)NC(=O)[C@@H](CC(N)=O)NC(=O)CCNC(=O)CN3CCN(CC(=O)O)CCN(CC(=O)O)CCN(CC(=O)O)CC3)(C(=O)N[C@@H](Cc3c[nH]c4ccccc34)C(N)=O)CC2)cc1F` [Compound 14] ({DOTA-βAla}-[dN][dN][dN][dN][dN]F[azaGly]L[Api](Gly(N-(3-F-4-Me-benzyl)))W-NH2), the Ki is reported as 10 to 100 nM. For `Cc1ccc(CNCC(=O)N2CCC(NC(=O)[C@H](CC(C)C)NC(=O)NNC(=O)[C@H](Cc3ccccc3)NC(=O)[C@@H](NC(=O)[C@H](CC(N)=O)NC(=O)[C@@H](Cc3ccncc3)NC(=O)CCCCCNC(=O)CN3CCN(CC(=O)O)CCN(CC(=O)O)CCN(CC(=O)O)CC3)[C@@H](C)O)(C(=O)N[C@@H](Cc3c[nH]c4ccccc34)C(N)=O)CC2)cc1F` [Compound 296] ({DOTA-Ahx}-[d4Pal]NTF[azaGly]L[Api](Gly(N-(3-F-4-Me-benzyl)))W-NH2), the Ki was less than 10 nM. Work on `Cc1ccc(CNCC(=O)N2CCC(NC(=O)[C@H](CC(C)C)NC(=O)NNC(=O)[C@H](Cc3ccccc3)NC(=O)[C@@H](NC(=O)[C@H](CC(N)=O)NC(=O)[C@@H](Cc3ccncc3)NC(=O)[C@@H](Cc3ccc(O)cc3)NC(=O)CN3CCN(CC(=O)O)CCN(CC(=O)O)CCN(CC(=O)O)CC3)[C@@H](C)O)(C(=O)N[C@@H](Cc3ccncc3)C(N)=O)CC2)cc1F` [Compound 281] ({DOTA}-[dY][d4Pal]NTF[azaGly]L[Api](Gly(N-(3-F-4-Me-benzyl)))[4Pal]-NH2) yielded a Ki of less than 10 nM. For `CNCC(=O)N1CCC(NC(=O)[C@H](CC(C)C)NC(=O)NNC(=O)[C@H](Cc2ccccc2)NC(=O)[C@@H](NC(=O)[C@H](CC(N)=O)NC(=O)[C@@H](Cc2ccc3ccccc3c2)NC(=O)[C@@H](Cc2ccc(O)cc2)NC(=O)CCCCCNC(=O)CN2CCN(CC(=O)O)CCN(CC(=O)O)CCN(CC(=O)O)CC2)[C@@H](C)O)(C(=O)N[C@@H](Cc2c[nH]c3ccccc23)C(N)=O)CC1` [Compound 201] ({DOTA-Ahx}-[dY][d2Nal]NTF[azaGly]L[Api](Sar)W-NH2), the Ki was less than 10 nM. `Cc1ccc(CNCC(=O)N2CCC(NC(=O)[C@H](CC(C)C)NC(=O)NNC(=O)[C@H](Cc3ccccc3)NC(=O)CCCCCNC(=O)[C@H](Cc3ccc4ccccc4c3)NC(=O)[C@@H](Cc3ccc(O)cc3)NC(=O)CN3CCN(CC(=O)O)CCN(CC(=O)O)CCN(CC(=O)O)CC3)(C(=O)N[C@@H](Cc3c[nH]c4ccccc34)C(N)=O)CC2)cc1F` [Compound 285] ({DOTA}-[dY][2Nal][Ahx]F[azaGly]L[Api](Gly(N-(3-F-4-Me-benzyl)))W-NH2) gave a Ki of less than 10 nM. `Cc1ccc(CNCC(=O)N2CCC(NC(=O)[C@H](CC(C)C)NC(=O)NNC(=O)[C@H](Cc3cccc(F)c3)NC(=O)[C@@H](NC(=O)[C@H](CC(N)=O)NC(=O)[C@H](CCC(=O)O)NC(=O)CN3CCN(CC(=O)O)CCN(CC(=O)O)CCN(CC(=O)O)CC3)[C@@H](C)O)(C(=O)N[C@@H](Cc3ccncc3)C(N)=O)CC2)cc1F` [Compound 171] ({DOTA}-ENT[Phe(3-F)][azaGly]L[Api](Gly(N-(3-F-4-Me-benzyl)))[4Pal]-NH2) was tested, and the Ki was 10 to 100 nM. `Cc1ccc(CNCC(=O)N2CCC(NC(=O)[C@H](CC(C)C)NC(=O)NNC(=O)[C@H](Cc3cccc(F)c3)NC(=O)[C@@H](NC(=O)[C@H](CC(N)=O)NC(=O)[C@H](Cc3c[nH]c4ccccc34)NC(=O)[C@@H](Cc3ccc(O)cc3)NC(=O)CCCCCNC(=O)CN3CCN(CC(=O)O)CCN(CC(=O)O)CCN(CC(=O)O)CC3)[C@@H](C)O)(C(=O)N[C@@H](Cc3c[nH]c4ccccc34)C(N)=O)CC2)cc1F` [Compound 35] ({DOTA-Ahx}-[dY]WNT[Phe(3-F)][azaGly]L[Api](Gly(N-(3-F-4-Me-benzyl)))W-NH2) gave a Ki of less than 10 nM. `Cc1ccc(CNCC(=O)N2CCC(NC(=O)[C@H](CC(C)C)NC(=O)NNC(=O)[C@H](Cc3ccccc3)NC(=O)[C@@H](NC(=O)[C@H](CC(N)=O)NC(=O)[C@@H](Cc3ccncc3)NC(=O)[C@@H](Cc3ccc(O)cc3)NC(=O)CNC(=O)CN3CCN(CC(=O)O)CCN(CC(=O)O)CCN(CC(=O)O)CC3)[C@@H](C)O)(C(=O)N[C@@H](Cc3ccc(O)cc3)C(N)=O)CC2)cc1F` [Compound 193] ({DOTA}-G[dY][d4Pal]NTF[azaGly]L[Api](Gly(N-(3-F-4-Me-benzyl)))Y-NH2) was tested, and the Ki was less than 10 nM.
